Assay results from patent US9546201B2, “MUC-1 cytoplasmic domain peptides as inhibitors of cancer” (DANA-FARBER CANCER INSTITUTE, INC., priority 2008, dated 2017).
Entries after “also recorded” stand apart in the source; their conditions may differ. Where a SMILES comes first, the peptide text is derived from it. [ ]: non-standard residue; d: D form.

Assays:
MUC1-C in MCF-7 cells = target: T1, MUC1-C in MCF-7 cells (Homo sapiens, UniProt P15941); assay: Immunoblot of nuclear lysates, MCF-7; type: cell-based; conditions: MCF-7 nuclear lysates, 5 μM peptide for 3 d
T1 construct: translated as a single polypeptide and cleaved into N- and C-terminal subunits in the endoplasmic reticulum; endogenous in cells; host or cells: ZR-75-1 and MCF-7 human breast cancer cells
T1 sequence (P15941 1098-1255 limits assumed): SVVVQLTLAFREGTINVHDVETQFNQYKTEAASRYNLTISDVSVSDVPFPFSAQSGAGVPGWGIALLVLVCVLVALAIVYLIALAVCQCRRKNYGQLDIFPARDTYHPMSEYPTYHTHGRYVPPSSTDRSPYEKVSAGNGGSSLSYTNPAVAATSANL
Procedure: FIGS. 2A-C. MUC1/CQC peptide blocks nuclear localization of MUC1-C. (FIG. 2A) ZR-75-1 cells were incubated with 5 μM FITC-labeled MUC1/CQC peptide for the indicated times and then analyzed by flow cytometry. The mean fluorescence index (MFI) is included in each of the panels. (FIGS. 2B-C) ZR-75-1 (FIG. 2B) and MCF-7 (FIG. 2C) cells were incubated in the presence of 5 μM MUC1/CQC or MUC1/AQA peptide for 3 d. Whole cell lysates (WCL) (left panels) and nuclear lysates (right panels) were immunoblotted with the indicated antibodies.
Whole cell and nuclear lysates were prepared as described (Leng et al., 2007). Soluble proteins were subjected to immunoprecipitation with anti-Flag (Sigma, St. Louis, Mo.). Immunoprecitates and soluble proteins were analyzed by immunoblotting with anti-His (Cell Signaling Technology, Danvers, Mass.), anti-GFP (Millipore, Danvers, Mass.), anti-Flag, anti-MUC1-C (Abl; NeoMarkers, Fremont, Calif.), anti-lamin B (EMD, La Jolla, Calif.) or anti-β-actin (Sigma). Reactivity was detected with horseradish peroxidase-conjugated second antibodies and chemiluminescence.
Human ZR-75-1 and MCF-7 breast cancer cells overexpress endogenous MUC1, and thus represent potential models for evaluating effects of the MUC1/CQC peptide (Ramasamy et al., 2007). To assess uptake, the ZR-75-1 cells were incubated with 5 μM FITC-MUC1/CQC peptide (FIG. 2A). […]

ZR-75-1/vector cells = assay: Viable cell number by trypan blue exclusion, ZR-75-1/vector; type: cell-based, human; conditions: 5 μM
Procedure: (§1) FIGS. 4A-E. Selectivity of MUC1/CQC for MUC1 expressing breast cancer cells. (FIG. 4A) ZR-75-1 cells were stably infected with an empty lentivirus (vector) or one expressing a MUC1 siRNA. Lysates for the infected cells were immunoblotted with the indicated antibodies. (FIG. 4B) ZR-75-1/vector cells were left untreated (diamonds), and ZR-75-1/vector (squares) and ZR-75-1/MUC1siRNA (triangles) cells were treated with 5 μM MUC1/CQC peptide for the indicated times. Viable cell number was determined by trypan blue exclusion. (FIG. 4C) 293 cells were left untreated (diamonds), and treated with 5 μM MUC1/CQC (squares) or MUC1/AQA (triangles) for the indicated times. Viable cell number was determined by trypan blue exclusion. (FIG. 4D) MCF-10A cells were left untreated (left panel), and treated with 5 μM MUC1/CQC (middle panel) or MUC1/AQA (right panel). At 3 d, cells were analyzed for cell cycle distribution. […] Viable cell number was determined by trypan blue exclusion.
(§2) Human breast cancer ZR-75-1, ZR-75-1/vector, ZR-75-1/MUC1siRNA (Ren et al., 2004) cell lines were grown in RPMI1640 medium supplemented with 10% heat-inactivated fetal bovine serum (HI-FBS), 100 U/ml penicillin, and 100 μg/ml streptomycin (Invitrogen) in a humidified incubator at 37° C. and 5% CO2. […] Viability was determined by trypan blue exclusion. […]

ZR-75-1/MUC1siRNA cells = assay: Viable cell number by trypan blue exclusion, ZR-75-1/MUC1siRNA; type: cell-based, human; conditions: 5 μM; MUC1 silenced
Procedure: as §1, §2

MUC1-negative 293 cells = assay: Viable cell number by trypan blue exclusion, 293 cells; type: cell-based; conditions: 5 μM
Procedure: as §1, §2

[1] = system: MCF-10A non-transformed mammary epithelial cell line; assay: Cell cycle distribution and viable cell number, MCF-10A; type: cell-based, human; conditions: 5 μM
Procedure: as §1, §2

[2] = Body weight of nude mice under peptide administration; type: in vivo

## CC[C@H](C)[C@H](NC(=O)[C@H](CC(=O)O)NC(=O)[C@H](CC(C)C)NC(=O)[C@H](CCC(N)=O)NC(=O)CNC(=O)[C@H](Cc1ccc(O)cc1)NC(=O)[C@H](CC(N)=O)NC(=O)[C@H](CCCCN)NC(=O)[C@H](CCCNC(=N)N)NC(=O)[C@H](CCCNC(=N)N)NC(=O)[C@H](CS)NC(=O)[C@H](CCC(N)=O)NC(=O)[C@H](CS)NC(=O)[C@@H](CCCNC(=N)N)NC(=O)[C@@H](CCCNC(=N)N)NC(=O)[C@@H](CCCNC(=N)N)NC(=O)[C@@H](CCCNC(=N)N)NC(=O)[C@@H](CCCNC(=N)N)NC(=O)[C@@H](CCCNC(=N)N)NC(=O)[C@@H](CCCNC(=N)N)NC(=O)[C@@H](CCCNC(=N)N)NC(=O)[C@H](N)CCCNC(=N)N)C(=O)N[C@@H](Cc1ccccc1)C(=O)N1CCC[C@H]1C(=O)O [MUC1/CQC] (H-[dR][dR][dR][dR][dR][dR][dR][dR][dR]CQCRRKNYGQLDIFP-OH; N-terminus and C-terminus assumed)
MUC1-C in MCF-7 cells
  nuclear MUC1-C levels: down-regulation of nuclear MUC1-C levels
ZR-75-1/vector cells
  effect on growth (viable cell number): growth arrest and death
ZR-75-1/MUC1siRNA cells
  effect on growth (viable cell number): substantially less effect; also recorded: abrogated the MUC1/CQC cytotoxic effects
MUC1-negative 293 cells
  effect on growth: no apparent effect
[1]
  effect on growth: no effect; also recorded: little effect
[1]; 3 d
  effect on cell cycle distribution: no effect
[2]; 50 mg/kg IP once each day over 11 d, female nude mice
  effect on weight of the individual mice: no apparent effect
[2]; next 28 d after 50 mg/kg IP daily for 11 d, data not shown
  effect on bodyweight after stopping administration: no subsequent effect on bodyweight
